Laboratory results published in the supplement of paper PMC10307832.

What was measured:
Assay in all cases: relative viability (nuclei count vs DMSO), 5 days (fraction); higher = more cells survive
Trametinib + Tozasertib = compound: CC(=O)Nc1cccc(-n2c(=O)n(C3CC3)c(=O)c3c(Nc4ccc(I)cc4F)n(C)c(=O)c(C)c32)c1 [Trametinib] + Cc1cc(Nc2cc(N3CCN(C)CC3)nc(Sc3ccc(NC(=O)C4CC4)cc3)n2)n[nH]1 [Tozasertib] (partner 0.1 µM)
Method in brief: (§1)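 Relative viability was taken as the ratio of nuclei in treated wells to nuclei in vehicle wells. Lung cancer cell lines in 1536-well plates received compounds by pin tool one day after seeding, either one drug alone or a fixed anchor-drug dose plus five library-drug doses (not always all listed) in √10 steps. Nuclei were counted on 4× images after 5 days of treatment, and values are medians of duplicate plates.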

[1] = compound: CN1C=C(C2=CC=CC=C21)/C=C\3/C4=C(C=CC=N4)NC3=O + Nc1nc2[nH]cc(CCc3ccc(C(=O)N[C@@H](CCC(=O)O)C(=O)O)cc3)c2c(=O)[nH]1 [Pemetrexed] (partner 0.2 µM)
Method in brief: as §1

Trametinib + Crizotinib = compound: CC(=O)Nc1cccc(-n2c(=O)n(C3CC3)c(=O)c3c(Nc4ccc(I)cc4F)n(C)c(=O)c(C)c32)c1 [Trametinib] + C[C@@H](Oc1cc(-c2cnn(C3CCNCC3)c2)cnc1N)c1c(Cl)ccc(F)c1Cl [Crizotinib] (partner 1 µM)
Method in brief: as §1

Trametinib + Navitoclax = compound: CC(=O)Nc1cccc(-n2c(=O)n(C3CC3)c(=O)c3c(Nc4ccc(I)cc4F)n(C)c(=O)c(C)c32)c1 [Trametinib] + CC1(C)CCC(c2ccc(Cl)cc2)=C(CN2CCN(c3ccc(C(=O)NS(=O)(=O)c4ccc(N[C@H](CCN5CCOCC5)CSc5ccccc5)c(S(=O)(=O)C(F)(F)F)c4)cc3)CC2)C1 [Navitoclax] (partner 0.5 µM)
Method in brief: as §1

Cell Line | relative viability (Trametinib + Tozasertib; first compound 0.0025 µM) | relative viability (Trametinib + Tozasertib; first compound 0.007906 µM) | relative viability (Trametinib + Tozasertib; first compound 0.025 µM) | relative viability (Trametinib + Tozasertib; first compound 0.07906 µM) | relative viability (Trametinib + Tozasertib; first compound 0.25 µM) | relative viability ([1]; first compound 0.02 µM) | relative viability ([1]; first compound 0.6325 µM) | relative viability ([1]; first compound 2 µM) | relative viability (Trametinib + Crizotinib; first compound 0.0025 µM) | relative viability (Trametinib + Crizotinib; first compound 0.007906 µM) | relative viability (Trametinib + Crizotinib; first compound 0.025 µM) | relative viability (Trametinib + Crizotinib; first compound 0.07906 µM) | relative viability (Trametinib + Crizotinib; first compound 0.25 µM) | relative viability ([1]; first compound 0.06325 µM) | relative viability ([1]; first compound 0.2 µM) | relative viability (Trametinib + Navitoclax; first compound 0.0025 µM) | relative viability (Trametinib + Navitoclax; first compound 0.007906 µM) | relative viability (Trametinib + Navitoclax; first compound 0.025 µM) | relative viability (Trametinib + Navitoclax; first compound 0.07906 µM) | relative viability (Trametinib + Navitoclax; first compound 0.25 µM)
SW 900 | 0.579 | 0.547 | 0.724 | 0.511 | 0.412 | 0.474 | 0.512 | 0.486 | – | – | – | – | – | – | – | – | – | – | – | –
PC-3 [JPC-3] | 0.864 | 0.742 | 0.795 | 0.629 | 0.563 | 0.846 | 0.8 | 0.79 | 1.02 | 0.968 | 0.919 | 0.737 | 0.601 | 1.05 | 1.07 | 0.815 | 0.793 | 0.709 | 0.705 | 0.455
NCI-H1703 | – | – | – | – | – | – | – | – | – | 0.495 | 0.66 | 0.727 | 0.423 | – | – | 1.15 | 1.15 | 1.06 | 0.972 | 0.987
EPLC-272H | 0.207 | 0.203 | 0.212 | 0.149 | 0.266 | 0.3 | – | 0.369 | 0.825 | 0.672 | 0.538 | 0.599 | 0.377 | 0.274 | 0.298 | 0.962 | 0.914 | 0.455 | 0.709 | 0.359
NCI-H1792 | – | – | – | – | – | 1.06 | 0.74 | 0.825 | 0.92 | 0.949 | 0.738 | 0.553 | 0.488 | 0.813 | 0.496 | 0.646 | 0.596 | 0.417 | 0.392 | 0.332
NCI-H1395 | 0.797 | 0.73 | 0.721 | 0.718 | 0.548 | 0.82 | 0.845 | 0.815 | – | – | – | – | – | 0.739 | 0.707 | 1.17 | 1.01 | 1.27 | 1.14 | 0.685
ABC-1 | 0.169 | 0.153 | 0.154 | 0.148 | 0.158 | – | – | – | 0.99 | 1.03 | 0.972 | 1.07 | 0.634 | – | – | – | – | – | – | –
NCI-H650 | 0.733 | 0.774 | 0.621 | 0.569 | 0.329 | 0.934 | 0.805 | 0.918 | 0.787 | 0.736 | 0.672 | 0.668 | 0.339 | 0.875 | – | – | – | – | – | –
NCI-H661 | 0.365 | 0.378 | 0.432 | 0.389 | 0.404 | 1.02 | 0.985 | 0.972 | 1.12 | 1.19 | 1.03 | 1.04 | 1.08 | 0.902 | 0.89 | – | – | – | – | –
NCI-H1648 | – | 0.611 | 0.515 | 0.4 | 0.352 | 0.729 | 0.691 | 0.739 | – | – | – | – | – | 0.777 | 0.922 | – | – | – | – | –
NCI-H522 | 0.583 | 0.529 | 0.455 | 0.526 | 0.446 | 0.743 | 1.1 | 0.998 | – | – | – | – | – | 0.775 | 0.878 | – | – | – | – | –
EBC-1 | – | – | – | – | – | – | – | – | 0.196 | 0.181 | 0.187 | 0.159 | 0.162 | – | – | 0.274 | 0.218 | 0.157 | 0.141 | 0.179
NCI-H1299 | – | – | – | – | – | – | – | – | 0.951 | 0.926 | 0.869 | 0.848 | 0.521 | – | – | 1.04 | 1.01 | 0.896 | 0.887 | 0.78
NCI-H1623 | 0.355 | 0.364 | 0.299 | 0.256 | 0.314 | – | – | – | – | – | – | – | – | – | – | – | – | – | – | –
LCLC-103H | 0.495 | 0.451 | 0.417 | 0.406 | 0.35 | 0.455 | 0.482 | 0.462 | 0.938 | 1.07 | 0.799 | 0.756 | 0.76 | 0.455 | 0.483 | – | – | – | – | –
NCI-H1793 | 0.281 | 0.226 | 0.253 | 0.164 | 0.205 | 0.876 | 0.785 | 0.988 | – | – | – | – | – | 1.11 | 0.73 | 0.36 | 0.345 | 0.265 | 0.216 | 0.133
IA-LM | – | – | – | – | – | – | – | – | 0.771 | 0.407 | 0.16 | 0.141 | 0.112 | – | – | 0.584 | 0.383 | 0.179 | 0.1 | 0.0292
A549 | – | – | – | – | – | – | – | – | 0.64 | 0.44 | 0.394 | 0.181 | 0.074 | – | – | 1.12 | 0.81 | 0.464 | 0.281 | 0.0636
NCI-H1563 | – | – | – | – | – | 0.827 | 0.665 | 0.752 | 0.944 | 0.747 | 0.817 | 0.785 | 0.623 | 0.694 | 0.703 | – | – | – | – | –
NCI-H727 | 0.353 | 0.337 | 0.287 | 0.231 | 0.279 | – | – | – | 0.381 | 0.278 | 0.279 | 0.195 | 0.206 | – | – | 0.158 | 0.117 | 0.0956 | 0.0926 | 0.0927
Calu-6 | – | – | – | – | – | – | – | – | 0.737 | 0.557 | 0.398 | 0.168 | 0.107 | – | – | 0.601 | 0.295 | 0.177 | 0.129 | 0.127
NCI-H358 | 0.112 | 0.107 | 0.0799 | 0.0885 | 0.0721 | 0.172 | 0.172 | 0.164 | 0.526 | 0.349 | 0.276 | 0.243 | 0.194 | 0.15 | 0.167 | – | – | – | – | –
NCI-H2342 | 0.488 | 0.435 | – | 0.516 | 0.492 | 0.704 | 0.756 | 0.767 | – | – | – | – | – | 0.747 | 0.736 | – | – | – | – | –
